Structures can show the parent of a compound that is named as a salt.
Test: Liposome encapsulation test, remote loading method (Experimental Example 4);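 for encapsulation efficiency: encapsulated compound as percent of compound amount introduced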
Type: physicochemical
Settings: for encapsulation rate, encapsulation efficiency and encapsulated compound content per 50 μmol of lipid: remote loading into liposomes
Protocol: For Example 1, Example 2, Example 3, Example 4, Example 5, Example 6, Example 7, Example 8, Example 9, Example 10, Example 11, Example 12, Example 13, Example 14, Example 15, Example 16, Example 17 and Alvocidib, an encapsulation test in liposomes was performed using a remote loading method.
<Liposome Encapsulation Test of Example 1, Example 2, Example 5, Example 6, Example 9, Example 10, Example 11, Example 12, Example 13, Example 14, Example 15, and Example 16>
Hydrogenated soybean phosphatidylcholine (COATSOME NC-21E, manufactured by NOF CORPORATION, 7.77 g), cholesterol (manufactured by Sigma, 2.78 g) and distearoylphosphatidylethanolamine-methoxypolyethylene glycol 2000 (SUNBRIGHT DSPE-020CN, manufactured by NOF CORPORATION, 2.47 g) were dissolved in tert-butyl alcohol (720 mL) warmed to 65° C. The solution was placed in an eggplant flask and frozen in a dry ice-acetone bath, and then the tert-butyl alcohol was removed by evaporation under reduced pressure to give a lipid mixture.
To the above lipid mixture was added a 250 mM ammonium sulfate solution (240 mL), and the mixture was warmed to 65° C., and dispersed by a homogenizer (ULTRA-TURRAX, manufactured by IKA) to give a crude liposome dispersion. Then, the crude liposome dispersion was dispersed by a high pressure homogenizer (Nano-Mizer NM2, manufactured by YOSHIDA KIKAI CO., LTD.) at a pressure of 100 MPa to give liposomes with an average particle size (Z-average) of about 80 nm. The liposome outer solution was replaced with 10 mM L-histidine/10% sucrose solution (pH 6.5) using a dialysis cassette (Slide-A-Lyzer G2 Dialysis Cassettes 20K MWCO, manufactured by Thermo Scientific) to give an empty liposome solution. The solution was filtered through a 0.22 μm membrane filter, and a 10 mM L-histidine/10% sucrose solution (pH 6.5) was added thereto to adjust the total lipid concentration to 50 mM (50 μmol/mL). The lipid concentration was determined by quantitatively analyzing cholesterol using HPLC and calculating the total lipid concentration from the lipid mixing ratio. The amount for the above adjustment was increased or decreased as appropriate.
The compound (10 mg) was weighed, and the empty liposome solution (1 mL) with a total lipid concentration of 50 mM was added thereto. The solution was adjusted to pH 5 to 6 with 1 mol/L hydrochloric acid or 1 mol/L aqueous sodium hydroxide solution as necessary, warmed in a 65° C. water bath for 2 to 3 minutes, and ice-cooled. The mixture was centrifuged at 15,000×g for 5 minutes to precipitate and remove insoluble substances.
The liposome solution (100 μL) after removing insoluble substances was taken on an ultrafiltration filter (Amicon Ultra, 100K, 0.5 mL, manufactured by Merck) and centrifuged at 4° C., 15,000×g for 10 minutes. The compound concentrations in the liposome solution after removing insoluble substances and in the filtrate after ultrafiltration were determined by HPLC, and the encapsulation rate, encapsulation efficiency, and encapsulated compound content per 50 μmol of lipid were calculated by the following formula.
The measurement conditions for HPLC are as follows.
An empty liposome solution with a total lipid concentration of 75 mM was prepared by the same procedure as for the above example compound group. Each compound was weighed, and the empty liposome solution with a total lipid concentration of 75 mM was added thereto such that the compound concentration became 15 mg/mL. The solution was adjusted to pH 5 to 6 with 1 mol/L hydrochloric acid or 1 mol/L aqueous sodium hydroxide solution, warmed in a 65° C. water bath for 3 minutes, and ice-cooled. Hereafter, the encapsulation rate and encapsulation efficiency were calculated by the same procedure as for the above example compound group. The encapsulated compound content per 50 μmol of lipid was calculated by the following formula.
[formula] <Liposome Encapsulation Test of Example 7, Example 8 and Example 17> […]

[1] = Compound concentration when encapsulated 10 mg/mL
[2] = Compound concentration when encapsulated 15 mg/mL

SMILES	Encapsulated compound content per 50 μmol of lipid [1] [mg]	Encapsulation efficiency [1] [%]	Encapsulation rate [1] [%]	encapsulation rate, encapsulation efficiency and encapsulated compound content per 50 μmol of lipid	Encapsulated compound content per 50 μmol of lipid [2] [mg]	Encapsulation efficiency [2] [%]	Encapsulation rate [2] [%]
CCN(C[C@@H]1CCCCN1)C(=O)Oc1cc(O)c2c(=O)cc(-c3ccccc3Cl)oc2c1[C@H]1CCN(C)C[C@H]1O [Example 1, 2-(2-chlorophenyl)-5-hydroxy-8-[(3S,4R)-3-hydroxy-1-methylpiperidin-4-yl]-4-oxo-4H-1-benzopyran-7-yl ethyl{[(2S)-piperidin-2-yl]methyl}carbamate ditrifluoroacetate]	7.3	73.2	82.9	high	–	–	–
CCN(C[C@H]1CCCCN1)C(=O)Oc1cc(O)c2c(=O)cc(-c3ccccc3Cl)oc2c1[C@H]1CCN(C)C[C@H]1O [Example 2, 2-(2-chlorophenyl)-5-hydroxy-8-[(3S,4R)-3-hydroxy-1-methylpiperidin-4-yl]-4-oxo-4H-1-benzopyran-7-yl ethyl{[(2R)-piperidin-2-yl]methyl}carbamate]	7.1	71.1	81.1	high	–	–	–
CN1CC[C@H](c2c(OC(=O)N(C)C[C@@H]3CCCCN3)cc(O)c3c(=O)cc(-c4ccccc4Cl)oc23)[C@H](O)C1 [Example 3, 2-(2-chlorophenyl)-5-hydroxy-8-[(3S,4R)-3-hydroxy-1-methylpiperidin-4-yl]-4-oxo-4H-1-benzopyran-7-yl methyl{[(2S)-piperidin-2-yl]methyl}carbamate]	–	–	–	high	6.0	60.2	61.0
CN1CC[C@H](c2c(OC(=O)N(C)C[C@H]3CCCCN3)cc(O)c3c(=O)cc(-c4ccccc4Cl)oc23)[C@H](O)C1 [Example 4, 2-(2-chlorophenyl)-5-hydroxy-8-[(3S,4R)-3-hydroxy-1-methylpiperidin-4-yl]-4-oxo-4H-1-benzopyran-7-yl methyl{[(2R)-piperidin-2-yl]methyl}carbamate]	–	–	–	high	7.1	71.2	72.2
CCCN(C[C@@H]1CCCCN1)C(=O)Oc1cc(O)c2c(=O)cc(-c3ccccc3Cl)oc2c1[C@H]1CCN(C)C[C@H]1O [Example 5, 2-(2-chlorophenyl)-5-hydroxy-8-[(3S,4R)-3-hydroxy-1-methylpiperidin-4-yl]-4-oxo-4H-1-benzopyran-7-yl {[(2S)-piperidin-2-yl]methyl}propylcarbamate]	7.2	71.6	75.7	high	–	–	–
CCCN(C[C@H]1CCCCN1)C(=O)Oc1cc(O)c2c(=O)cc(-c3ccccc3Cl)oc2c1[C@H]1CCN(C)C[C@H]1O [Example 6, 2-(2-chlorophenyl)-5-hydroxy-8-[(3S,4R)-3-hydroxy-1-methylpiperidin-4-yl]-4-oxo-4H-1-benzopyran-7-yl {[(2R)-piperidin-2-yl]methyl}propylcarbamate]	6.6	65.9	73.8	high	–	–	–
CCN(CC1CCCCN1)C(=O)Oc1cc(O)c2c(=O)cc(-c3ccccc3Cl)oc2c1[C@H]1CCN(C)C[C@H]1O (stereo partly drawn) [Example 7, 2-(2-chlorophenyl)-5-hydroxy-8-[(3S,4R)-3-hydroxy-1-methylpiperidin-4-yl]-4-oxo-4H-1-benzopyran-7-yl ethyl[(piperidin-2-yl)methyl]carbamate dihydrochloride]	7.3	72.8	81.1	high	–	–	–
CN1CC[C@H](c2c(OC(=O)N(C)CC3CCCCN3)cc(O)c3c(=O)cc(-c4ccccc4Cl)oc23)[C@H](O)C1 (stereo partly drawn) [Example 8, 2-(2-chlorophenyl)-5-hydroxy-8-[(3S,4R)-3-hydroxy-1-methylpiperidin-4-yl]-4-oxo-4H-1-benzopyran-7-yl methyl[(piperidin-2-yl)methyl]carbamate]	6.1	61.1	60.6	high	–	–	–
CCCN(CC1CCCCN1)C(=O)Oc1cc(O)c2c(=O)cc(-c3ccccc3Cl)oc2c1[C@H]1CCN(C)C[C@H]1O (stereo partly drawn) [Example 9, 2-(2-chlorophenyl)-5-hydroxy-8-[(3S,4R)-3-hydroxy-1-methylpiperidin-4-yl]-4-oxo-4H-1-benzopyran-7-yl [(piperidin-2-yl)methyl]propylcarbamate]	7.2	72.1	78.5	high	–	–	–
CC(C)N(CC1CCCCN1)C(=O)Oc1cc(O)c2c(=O)cc(-c3ccccc3Cl)oc2c1[C@H]1CCN(C)C[C@H]1O (stereo partly drawn) [Example 10, 2-(2-chlorophenyl)-5-hydroxy-8-[(3S,4R)-3-hydroxy-1-methylpiperidin-4-yl]-4-oxo-4H-1-benzopyran-7-yl [(piperidin-2-yl)methyl]propan-2-ylcarbamate]	2.3	23.0	22.8	–	–	–	–
CN1CC[C@H](c2c(OC(=O)N(CCF)CC3CCCCN3)cc(O)c3c(=O)cc(-c4ccccc4Cl)oc23)[C@H](O)C1 (stereo partly drawn) [Example 11, 2-(2-chlorophenyl)-5-hydroxy-8-[(3S,4R)-3-hydroxy-1-methylpiperidin-4-yl]-4-oxo-4H-1-benzopyran-7-yl (2-fluoroethyl) [(piperidin-2-yl)methyl]carbamate]	4.6	46.1	45.5	–	–	–	–
COCCN(CC1CCCCN1)C(=O)Oc1cc(O)c2c(=O)cc(-c3ccccc3Cl)oc2c1[C@H]1CCN(C)C[C@H]1O (stereo partly drawn) [Example 12, 2-(2-chlorophenyl)-5-hydroxy-8-[(3S,4R)-3-hydroxy-1-methylpiperidin-4-yl]-4-oxo-4H-1-benzopyran-7-yl (2-methoxyethyl) [(piperidin-2-yl)methyl]carbamate]	3.6	36.2	35.8	–	–	–	–
CN1CC[C@H](c2c(OC(=O)N(CCC(F)(F)F)CC3CCCCN3)cc(O)c3c(=O)cc(-c4ccccc4Cl)oc23)[C@H](O)C1 (stereo partly drawn) [Example 13, 2-(2-chlorophenyl)-5-hydroxy-8-[(3S,4R)-3-hydroxy-1-methylpiperidin-4-yl]-4-oxo-4H-1-benzopyran-7-yl [(piperidin-2-yl)methyl](3,3,3-trifluoropropyl)carbamate]	3.5	34.6	35.2	–	–	–	–
CN1CC[C@H](c2c(OC(=O)N(CCCC(F)(F)F)CC3CCCCN3)cc(O)c3c(=O)cc(-c4ccccc4Cl)oc23)[C@H](O)C1 (stereo partly drawn) [Example 14, 2-(2-chlorophenyl)-5-hydroxy-8-[(3S,4R)-3-hydroxy-1-methylpiperidin-4-yl]-4-oxo-4H-1-benzopyran-7-yl [(piperidin-2-yl)methyl](4,4,4-trifluorobutyl)carbamate]	2.8	28.4	26.6	–	–	–	–

Source: patent US12617779B2, “Self degradation-type CDK9 inhibitor prodrug and liposome encapsulating same” (Sumitomo Pharma Co., Ltd., priority 2021, dated 2026)
